Values quoted from earlier work in patent US5962660A, “Sialyl Lewis X mimetics incorporating fucopeptides” (The Scripps Research Institute, priority 1997, dated 1999).

Assays:
[1] = for lung injury / tissue accumulation of neutrophils: intravenous infusion of up to 200 μg, rats given intravenous cobra venom
[2] = because of glycosidase reactions

| Substance | lung injury [1] | tissue accumulation of neutrophils [1] | stability in the blood stream [2] | effective intravenous concentration ([1]; calculated from the 200 μg used) | IC50 ([1]; rats, read-out: IC50 value in vivo for protecting against lung injury) [nM] | affinity for E-selectin in vitro (E-selectin) |
| --- | --- | --- | --- | --- | --- | --- |
| NeuAcα2→3Galβ1→4(Fucα1→3)GlcNAcβ1,3Galβ- [pentamer] | dramatically reduced | diminished |  |  |  |  |
| NeuAcα2→3Galβ1→4(Fucα1→3)GlcNAc [SLe^x] | dramatically reduced | diminished | unstable | less than 1 μM | ~1000 | relatively weak |
